ChEMBL document CHEMBL4680193, “Isoindoline scaffold-based dual inhibitors of HDAC6 and HSP90 suppressing the growth of lung cancer in vitro and in vivo” (Eur J Med Chem, 2020)
pIC50: −log10 of the molar value. Calls of active or inactive are those of the source. No cut-off for these calls is given here.

Assays:
[1] = Toxicity in BALB/c mouse xenografted with human NCI-H1975 cells assessed as reduction in body weight 50 to 100 mg/kg, ip administered for 2 weeks and measured after 2 week; type: organism-based; settings: in vivo, 336 h, dose 50-100 mg/kg
[2] = molecular target: Heat shock protein HSP 90-alpha (Homo sapiens, UniProt P07900); experiment: Inhibition of HSP90a (unknown origin)
Histone deacetylase = type: tissue-based, Homo sapiens; settings: hela
Histone deacetylase 1 = Histone deacetylase 1 (Homo sapiens, UniProt Q13547); experiment: Inhibition of recombinant human C-terminal FLAG-His-tagged HDAC1 (1 to 482 residues) expressed in Sf21 cells using RHK-K(Ac)-AMC as substrate incubated for 60 mins by fluorimetry analysis
Sequence of Histone deacetylase 1 (Q13547 whole entry, the tested form may be a part): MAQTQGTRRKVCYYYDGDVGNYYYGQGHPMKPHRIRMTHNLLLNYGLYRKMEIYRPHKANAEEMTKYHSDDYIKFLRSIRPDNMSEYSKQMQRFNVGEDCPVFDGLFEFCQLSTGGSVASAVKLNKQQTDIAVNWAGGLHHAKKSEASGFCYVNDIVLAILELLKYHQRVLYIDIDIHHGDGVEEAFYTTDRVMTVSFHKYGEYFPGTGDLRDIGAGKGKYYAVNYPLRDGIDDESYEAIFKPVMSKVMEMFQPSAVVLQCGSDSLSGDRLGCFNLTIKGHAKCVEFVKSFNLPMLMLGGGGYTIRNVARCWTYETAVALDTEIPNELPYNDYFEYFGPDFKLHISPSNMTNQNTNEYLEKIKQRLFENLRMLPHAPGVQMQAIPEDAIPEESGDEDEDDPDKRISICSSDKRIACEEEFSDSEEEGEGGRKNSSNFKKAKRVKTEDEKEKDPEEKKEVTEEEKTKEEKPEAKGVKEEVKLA

[3] = molecular target: T1, Heat shock protein HSP90 (Homo sapiens) (UniProt P07900+P08238); experiment: Inhibition of HSP90 in human NCI-H1975 cells assessed as upregulation of HSP70 expression at 0.03 to 0.3 uM measured upto 24 hrs by Western blot analysis; type: cell-based; settings: dose 0.03-0.3 µM, time hrs <=24
[4] = molecular target: T1, Heat shock protein HSP90 (Homo sapiens); experiment: Inhibition of HSP90 in human NCI-H1975 cells assessed as decrease in Akt Ser473 phosphorylation at 3 uM measured after 6 hrs by Western blot analysis; type: cell-based
NCI-H1975 [5] = experiment: Induction of apoptosis in human NCI-H1975 cells assessed as increase in caspase 8 activation incubated for 48 hrs by PI staining based Western blot analysis; type: functional, cell-based; settings: dose 0.1-3 µM
NCI-H1975 [6] = experiment: Antitumor activity against human NCI-H1975 cells xenografted in BALB/c mouse assessed as reduction in tumor growth at 50 mg/kg, ip administered for 2 weeks and measured after 2 week relative to control; type: functional; settings: 336 h, read-out: TGI
NCI-H1975 [7] = experiment: Antitumor activity against human NCI-H1975 cells xenografted in BALB/c mouse assessed as reduction in tumor growth at 50 mg/kg, ip administered for 2 weeks in presence of afatinib and measured after 2 week relative to control; type: functional; settings: 336 h, read-out: TGI
NCI-H1975 [8] = experiment: Inhibition of IFN-gamma-induced PD-L1 in human NCI-H1975 cells at 0.3 uM incubated for 48 hrs by Flow cytometry analysis; type: functional, cell-based

pIC50 [2]: 7.33
IC50 (Histone deacetylase): 0.3888 µM
pIC50 (Histone deacetylase 1): 5.73
inhibition [3]: Active
inhibition [4]: Active
SMILES: CC(C)c1cc(C(=O)N2Cc3ccc(NC(=O)CCCCCCCCC(=O)NO)cc3C2)c(O)cc1O
Activity [1]: Non-Toxic
Activity (NCI-H1975 [5]): Dose-dependent effect
inhibition in vivo at 50 mg/kg (NCI-H1975 [6]): 44.8%
inhibition in vivo at 50 mg/kg (NCI-H1975 [7]): 72.3%
inhibition (NCI-H1975 [8]): Active
